Results as given in ChEMBL document CHEMBL4828754, “Salicinoyl Quinic Acids and Their Prostaglandin E2 Production Inhibitory Activities from the Fruits of Casearia grewiifolia” (J Nat Prod, 2021).
Calls of active or inactive are those of the source. No cut-off for these calls is given here.

Test system: not listed separately
Test: Inhibition of ultraviolet B-irradiation upregulated of prostaglandin E2 production in human HaCaT cells measured after 2 hrs by ELISA
Type: functional, cell-based
Settings: light or radiation study

Question: With CC(=O)Oc1ccccc1C(=O)O [ASPIRIN] as the molecule, how does the IC50 read?
Answer: The IC50 was 30.4 µM.

Question: For COC(=O)[C@]1(O)C[C@@H](O)[C@@H](OC(=O)/C=C/c2ccccc2)[C@H](O)C1, which IC50 is on record?
Answer: The IC50 was 28.8 µM.

Question: With CC(=O)O[C@@H]1C[C@](O)(C(=O)OCc2ccccc2O[C@@H]2O[C@H](CO)[C@@H](O)[C@H](O)[C@H]2O)C[C@@H](OC(C)=O)[C@H]1OC(=O)/C=C/c1ccccc1 as the molecule, how does the IC50 read?
Answer: Its IC50 is 20.5 µM.

Question: Which IC50 does the source give for Oc1ccc(/C=C/c2cc(O)cc(O)c2)cc1 [RESVERATROL] here?
Answer: Its IC50 is 35.1 µM.

Test system: HaCaT
Test: Inhibition of ultraviolet B-irradiation upregulated of prostaglandin E2 production in human HaCaT cells at 10 uM measured after 2 hrs by ELISA relative to control
Type: functional, cell-based
Settings: not given

Question: For COC(=O)[C@]1(O)C[C@@H](O)[C@@H](OC(=O)c2ccccc2)[C@H](O[C@@H]2O[C@@H](C)[C@H](O)[C@@H](O)[C@H]2O)C1, which inhibition is on record?
Answer: Its inhibition is “Active”.

Question: With CC(=O)O[C@@H]1[C@H](OC(C)=O)C[C@@](OC(=O)/C=C/c2ccccc2)(C(=O)OCc2ccccc2O[C@@H]2O[C@H](CO)[C@@H](O)[C@H](O)[C@H]2O)C[C@H]1O[C@@H]1O[C@H](CO)[C@@H](O)[C@H](O)[C@H]1O as the molecule, how does the inhibition read?
Answer: Its inhibition is “Active”.

Question: With OCc1ccccc1O[C@@H]1O[C@H](CO)[C@@H](O)[C@H](O)[C@H]1O as the molecule, how does the inhibition read?
Answer: Its inhibition is “inactive”.

Question: With CC(=O)O[C@@H]1C[C@](O)(C(=O)OCc2ccccc2O[C@@H]2O[C@H](CO)[C@@H](O)[C@H](O)[C@H]2O)C[C@@H](O)[C@H]1OC(=O)/C=C/c1ccccc1 as the molecule, how does the inhibition read?
Answer: The inhibition was “Active”.
